According to patent US7943603B2, “Medical uses of a selective estrogen receptor modulator in combination with sex steroid precursors” (Endorecherche, Inc., priority 1998, dated 2011):
Where “and” joins values, the source holds several entries; their conditions need not be identical. Equal entries are not always repeated. Entries after “also recorded” stand apart in the source; their conditions may differ.

Tests used:
[1] = system: DMBA-induced mammary carcinoma; assay: Development of DMBA-induced mammary carcinoma in the rat; assay type: in vivo; conditions: 279 days after DMBA
Method: Female Sprague-Dawley rats [Crl:CD(SD)Br] were obtained at 44-46 days of age from Charles River Canada Inc. (St. Constant, Quebec) and housed 2 per cage in a light (12 h light/day; lights on at 07:15 h)-and temperature (22±2° C.)-controlled environment. Animals received Purina rodent chow and tap water ad libitum. The animal studies were conducted in a Canadian Council on Animal Care (CCAC)-approved facility in agreement with the CCAC Guide for Care and Use of Experimental Animals.
Mammary carcinomas were induced by a single intragastric administration of 20 mg of DMBA (Sigma Chemical Co., St. Louis, Mo.) in 1 ml of corn oil at 50-52 days of age. Two months later, tumor measurement was performed biweekly. The two largest perpendicular diameters of each tumor were recorded with calipers to estimate tumor size as described (Asselin et al., Endocrinology 101: 666-671, 1977). Tumor site, size and number were recorded.
(§1) The animals were randomly divided into groups each containing 20 rats with the exception of 40 animals in the control group. […] Treatment was initiated 3 days before the oral administration of DMBA. EM-800 was synthesized in the Medicinal Chemistry Division of our laboratory while DHEA was purchased from Steraloids Inc., Wilton, N.H.
Many of the control animals and some of EM-800- or DHEA-treated animals were sacrificed by cervical dislocation under isoflurane-induced anesthesia 6 months after DMBA administration because of the too large size of tumors. The values of tumor size and number of these rats at sacrifice, together with those measured at later time intervals from the surviving animals, were used for the later analysis of the incidence of tumors, average tumor number per tumor-bearing rat and average tumor size per tumor-bearing animal. […] Rats were sacrificed 279 days after DMBA administration.
Statistical significance was measured according to the multiple range test of Duncan-Kramer (Biometrics 12: 307-310, 1956). Analysis of the incidence of development of mammary tumors was performed using the Fisher's exact test (Conover, Practical nonparametric statistics, 2nd Edition 153-170, 1980). The data are presented as means±S.E.M.

[2] = system: rat; assay: Urine and serum biochemical parameters of bone metabolism; assay type: in vivo; conditions: DHEA 10 mg percutaneously, EM-800 75 μg orally, once daily, alone or in combination, 9 months
Source text: as §1
(§2) Twenty-four-hour urinary samples were collected at the end of the experiment from the first 9 rats of each group following transfer in metabolic cages (Allentown Caging Equipment Co., Allentown, N.J.). Two urinary samples were collected and analyzed on different days for each animal in order to minimize the influence of daily variation. Therefore, each value shown represents the mean of the two measurements performed on two different days. 0.5 ml of toluene was added into the urine collecting tubes to prevent urine evaporation and bacterial growth and the urinary volume was recorded. Trunk blood was collected at sacrifice and was allowed to clot at 4° C. overnight before centrifugation at 3000 rpm for 30 min.
(§3) Fresh samples were used for the assay of urinary creatinine, calcium, and phosphorus as well as serum total alkaline phosphatase (tALP) activity, cholesterol and triglycerides. These biochemical parameters were measured automatically with a Monarch 2000 Chemistry System (Instrumentation Laboratory Co. Lexington, Mass.) under Good Laboratory Practice conditions. Urinary hydroxyproline was measured as described (Podenphant et al., Clinica Chimica Acta 142: 145-148, 1984).

[3] = system: rat; assay: Serum triglyceride and cholesterol levels after 9-month treatment; assay type: in vivo; conditions: DHEA 10 mg percutaneously, EM-800 75 μg orally, once daily, alone or in combination, 9 months
Source text: as §1, §2, §3

[4] = biological target: T1, estrogen receptor (Homo sapiens, UniProt P03372); assay: Testing of antiestrogens for function as SERM
T1 sequence (P03372 1-595): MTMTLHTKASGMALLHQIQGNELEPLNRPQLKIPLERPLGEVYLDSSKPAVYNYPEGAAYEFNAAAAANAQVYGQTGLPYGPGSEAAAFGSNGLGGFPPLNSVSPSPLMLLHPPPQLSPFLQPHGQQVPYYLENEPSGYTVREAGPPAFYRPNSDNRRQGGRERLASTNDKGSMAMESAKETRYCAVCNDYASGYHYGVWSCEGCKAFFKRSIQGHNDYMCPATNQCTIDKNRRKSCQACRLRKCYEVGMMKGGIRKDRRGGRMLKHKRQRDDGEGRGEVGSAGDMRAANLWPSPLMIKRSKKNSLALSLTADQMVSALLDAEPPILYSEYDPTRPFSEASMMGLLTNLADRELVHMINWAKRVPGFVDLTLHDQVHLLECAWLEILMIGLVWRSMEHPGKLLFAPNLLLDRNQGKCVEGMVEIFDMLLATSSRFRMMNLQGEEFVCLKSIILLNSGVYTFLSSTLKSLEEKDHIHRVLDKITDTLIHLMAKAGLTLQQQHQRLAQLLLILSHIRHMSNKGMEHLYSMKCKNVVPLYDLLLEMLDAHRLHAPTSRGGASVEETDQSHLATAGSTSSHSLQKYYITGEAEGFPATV

[5] = system: human ZR-75-1 breast tumor xenografts; assay: Growth of human ZR-75-1 breast tumor xenografts in OVX nude mice supplemented with estrone; conditions: OVX+E1 0.5 μg nude mice, 9.5 months; for average tumor weight: E1 control 1.12±0.26

Question: With `CC1=C(c2ccc(OC(=O)C(C)(C)C)cc2)[C@H](c2ccc(OCCN3CCCCC3)cc2)Oc2cc(OC(=O)C(C)(C)C)ccc21` [EM-800, (+)-7-pivaloyloxy-3-(4′-pivaloyloxyphenyl)-4-methyl-2-(4″-(2′″-piperidinoethoxy)phenyl)-2H-benzopyran] as the compound, how does the “incidence of DMBA-induced mammary carcinoma (animals with palpable tumors)” value ([1]; DHEA 10 mg percutaneously, EM-800 75 μg orally, once daily, control 95%) read?
Answer: 38%

Question: What about the “average tumor number per tumor-bearing animal” value ([1]; end of experiment, DHEA 10 mg, EM-800 75 μg daily, control 4.7±0.5) of the same compound?
Answer: 1.4±0.3 tumors/animal

Question: And the “average tumor area per tumor-bearing animal” value ([1]; end of experiment, DHEA 10 mg, EM-800 75 μg daily, control 12.8±1.3)?
Answer: 7.7±1.8 cm^2

Question: What about the “decrease of daily urinary calcium excretion versus control” value [2] of the same compound?
Answer: no statistically significant influence

Question: What about the “decrease of daily urinary phosphorus excretion versus control” value [2] of the same compound?
Answer: no statistically significant influence

Question: What about the “decrease of urinary hydroxyproline/creatinine ratio versus control” value [2] of the same compound?
Answer: 48%

Question: What about the “increase of serum total alkaline phosphatase (tALP) activity versus control” value [2] of the same compound?
Answer: no statistically significant influence; also recorded: no effect

Question: What about the “decrease of serum cholesterol levels” value [3] of the same compound?
Answer: 45%

Question: And the “decrease of serum triglyceride levels” value [3]?
Answer: 72%

Question: What about the “function as SERM” value [4] of the same compound?
Answer: found to function as SERMs

Question: What about the “Complete response, (%)” value ([5]; EM-800 15 μg orally daily) of the same compound?
Answer: 29.4%

Question: And the “Complete response, number” value ([5]; EM-800 15 μg orally daily)?
Answer: 5

Question: What about the “Partial response, (%)” value ([5]; EM-800 15 μg orally daily) of the same compound?
Answer: 5.9%

Question: What about the “Partial response, number” value ([5]; EM-800 15 μg orally daily) of the same compound?
Answer: 1

Question: And the “Progression, (%)” value ([5]; EM-800 15 μg orally daily)?
Answer: 35.3%

Question: What about the “Progression, number” value ([5]; EM-800 15 μg orally daily) of the same compound?
Answer: 6

Question: What about the “Stable response, (%)” value ([5]; EM-800 15 μg orally daily) of the same compound?
Answer: 29.4%

Question: What about the “Stable response, number” value ([5]; EM-800 15 μg orally daily) of the same compound?
Answer: 5

Question: What about the “inhibition of estrogen-stimulated ZR-75-1 tumor size” value (from here on “inhibition”) ([5]; EM-800 15 μg orally daily) of the same compound?
Answer: 88% and 87.5%

Question: What about the average tumor weight ([5]; EM-800 15 μg orally daily) of the same compound?
Answer: 0.08 ± 0.03 g

Question: What about the “Complete response, (%)” value ([5]; EM-800 50 μg orally daily) of the same compound?
Answer: 25.0%

Question: What about the “Complete response, number” value ([5]; EM-800 50 μg orally daily) of the same compound?
Answer: 4

Question: And the “Partial response, (%)” value ([5]; EM-800 50 μg orally daily)?
Answer: 18.8%

Question: And the “Partial response, number” value ([5]; EM-800 50 μg orally daily)?
Answer: 3

Question: And the “Progression, (%)” value ([5]; EM-800 50 μg orally daily)?
Answer: 25.0%

Question: And the “Progression, number” value ([5]; EM-800 50 μg orally daily)?
Answer: 4

Question: What about the “Stable response, (%)” value ([5]; EM-800 50 μg orally daily) of the same compound?
Answer: 31.2%

Question: And the “Stable response, number” value ([5]; EM-800 50 μg orally daily)?
Answer: 5

Question: And the “inhibition” value ([5]; EM-800 50 μg orally daily)?
Answer: 93% and 93.5%

Question: What about the average tumor weight ([5]; EM-800 50 μg orally daily) of the same compound?
Answer: 0.03 ± 0.01 g

Question: And the “Complete response, (%)” value ([5]; EM-800 100 μg orally daily)?
Answer: 50.0%

Question: And the “Complete response, number” value ([5]; EM-800 100 μg orally daily)?
Answer: 8

Question: And the “Partial response, (%)” value ([5]; EM-800 100 μg orally daily)?
Answer: 0 (0) %

Question: And the “Partial response, number” value ([5]; EM-800 100 μg orally daily)?
Answer: 0 (0)

Question: And the “Progression, (%)” value ([5]; EM-800 100 μg orally daily)?
Answer: 31.2%

Question: And the “Progression, number” value ([5]; EM-800 100 μg orally daily)?
Answer: 5

Question: And the “Stable response, (%)” value ([5]; EM-800 100 μg orally daily)?
Answer: 18.8%

Question: And the “Stable response, number” value ([5]; EM-800 100 μg orally daily)?
Answer: 3

Question: What about the “inhibition” value ([5]; EM-800 100 μg orally daily) of the same compound?
Answer: 94%

Question: And the average tumor weight ([5]; EM-800 100 μg orally daily)?
Answer: 0.04 ± 0.03 g
